Data reported in patent US20250101436A1, “APTAMERS AND SMALL MOLECULE LIGANDS” (MeiraGTx UK II Limited, priority 2021, published 2025).

Test system: luciferase gene expression in HEK 293 cells in response to Comp. 004
Assay: Screen of riboswitch constructs with 12C6-1 variant aptamers (libraries N1-N5) against Comp. 004, luciferase in HEK 293 cells
Type: cell-based, human
Details: library N1 (J2-4), HEK 293, 25 M [sic] Comp. 004
Description: Cloning of riboswitch constructs containing 12C6-1 variant aptamer sequences: 12C6-1 aptamer sequence was used as template, and nucleobases were randomized at certain position in the sequence. Aptamers incorporating random mutagenesis were synthesized by Integrated DNA Technologies, Inc. Golden Gate cloning strategy (New England Biolabs, NEB) was used to clone the synthesized aptamer sequences into intron-exon-intron cassette to replace the 12C6-1 aptamer in the Luci-12C6-1 riboswitch construct, generating riboswitch constructs containing variant aptamer sequences.
To further improve the riboswitch activity in responding to Comp. 004 and related compounds, the aptamer sequence 12C6-1 was subject to mutagenesis to generate aptamer variants, and the riboswitches containing the variant aptamers were screened against Comp. 004 for the ones that have improved dynamic range of induced gene expression (the fold induction), in comparison with the fold induction by parental riboswitch construct Luci-12C6-1. […] These loop or junction region alone or together with stem region in proximity were chosen for random mutagenesis to generate riboswitches with re-engineered aptamer sequences with improved activity.
Five aptamer libraries N1, N2, N3, N4 and N5 were generated by randomizing nucleotides at positions in J2-4, J2-3/J3-3a/J3a-2/P3, L3a, J4-5/J5-4/P4 and L5 regions of the parent 12C6-1 sequence, respectively (see FIGS. 3a and 3b). Single bacterial colonies were picked and plasmids containing variant riboswitch constructs were screened in HEK 293 cells for improved gene regulation activity in response to 25 µM Comp. 004 as compared to parent riboswitch construct Luci-12C6-1.

In order of falling “Fold (induction of luciferase gene expression)” value (from here on “Fold”):
1. N1_2G1 (CTGGGGAGTCCTTCATGCGGGGC; chemistry not given here)  100.11 fold
2. N1_2G3 (CTGGGGAGTCCTTCATGCGGGGC; chemistry not given here)  36.58 fold
3. N1_2E5 (CTGGGGAGTCCTTCATGCGGGGC; chemistry not given here)  35.05 fold
4. N1_2H10 (CTGGGGAGTCCTTCATGCGGGGC; chemistry not given here)  16.82 fold
5. N1_2D6 (CTGGGGAGTCCTTCATGCGGGGC; chemistry not given here)  13.57 fold
6. N1_2E9 (CTGGGGAGTCCTTCATGCGGGGC; chemistry not given here)  11.27 fold
7. N1_2F10 (CTGGGGAGTCCTTCATGCGGGGC; chemistry not given here)  10.84 fold
8. N1_2D3 (CTGGGGAGTCCTTCATGCGGGGC; chemistry not given here)  5.40 fold
9. N1_2D12 (CTGGGGAGTCCTTCATGCGGGGC; chemistry not given here)  3.26 fold
10. N1_2H8 (CTGGGGAGTCCTTCATGCGGGGC; chemistry not given here)  1.45 fold

Same assay, conditions: library N2 variant aptamers (J2-3, P3-J3-3a, J3a-2 randomized) of 12C6-1 in riboswitch constructs; in response to Comp. 004; HEK 293 cells

In order of rising “Fold” value:
1. N2_2A2 (CTGGGGAGTCCTTCATGC; chemistry not given here)  0.7 fold
2. N2_2B4 (CTGGGGAGTCCTTCATGC; chemistry not given here)  0.8 fold
3. N2_2F3 (DNA CTGGGGAGTCCTTCATGC; chemistry not given here)  0.9 fold
4. N2_2C5 (CTGGGGAGTCCTTCATGC; chemistry not given here)  1.0 fold
5. N2_2H4 (CTGGGGAGTCCTTCATGC; chemistry not given here)  1.0 fold
6. N2_2B1 (CTGGGGAGTCCTTCATGC; chemistry not given here)  1.0 fold
7. N2_2B5 (CTGGGGAGTCCTTCATGC; chemistry not given here)  1.0 fold
8. N2_2D7 (DNA CTGGGGAGTCCTTCATGC; chemistry not given here)  1.0 fold
9. N2_2B12 (CTGGGGAGTCCTTCATGC; chemistry not given here)  1.0 fold
10. N2_2H6 (CTGGGGAGTCCTTCATGC; chemistry not given here)  1.0 fold
11. N2_2D6 (DNA CTGGGGAGTCCTTCATGC; chemistry not given here)  1.1 fold
12. N2_2B10 (CTGGGGAGTCCTTCATGC; chemistry not given here)  1.1 fold
13. N2_2C1 (CTGGGGAGTCCTTCATGC; chemistry not given here)  1.1 fold
14. N2_2G8 (DNA CTGGGGAGTCCTTCATGC; chemistry not given here)  1.1 fold
15. N2_2G4 (DNA CTGGGGAGTCCTTCATGC; chemistry not given here)  1.1 fold
16. N2_2G3 (DNA CTGGGGAGTCCTTCATGC; chemistry not given here)  1.1 fold
17. N2_2C10 (CTGGGGAGTCCTTCATGC; chemistry not given here)  1.2 fold
18. N2_2D10 (DNA CTGGGGAGTCCTTCATGC; chemistry not given here)  1.2 fold
19. N2_2G9 (CTGGGGAGTCCTTCATGC; chemistry not given here)  1.3 fold
20. N2_2E3 (DNA CTGGGGAGTCCTTCATGC; chemistry not given here)  1.3 fold
21. N2_2C4 (CTGGGGAGTCCTTCATGC; chemistry not given here)  2.0 fold

Same assay, conditions: library N5 variant aptamers (L5, X16-X21 randomized) of 12C6-1 in riboswitch constructs; in response to Comp. 004 treatment; HEK 293 cells

In order of rising “Fold” value:
1. N5_1D12 (CTGGGGAGTCCT; chemistry not given here)  3.6 fold
2. N5_1A3 (CTGGGGAGTCCT; chemistry not given here)  228.1 fold
3. N5_7A6 (CTGGGGAGTCCT; chemistry not given here)  314.5 fold
4. N5_1H11 (CTGGGGAGTCCT; chemistry not given here)  413.6 fold
5. N5_1G2 (CTGGGGAGTCCT; chemistry not given here)  517.7 fold
6. N5_1H8 (CTGGGGAGTCCT; chemistry not given here)  622.6 fold
7. N5_1B7 (CTGGGGAGTCCT; chemistry not given here)  662.1 fold
8. N5_1A2 (CTGGGGAGTCCT; chemistry not given here)  672.2 fold
9. N5_1D3 (CTGGGGAGTCCT; chemistry not given here)  697.1 fold
10. N5_3A2 (CTGGGGAGTCCT; chemistry not given here)  718.0 fold
11. N5_1E2 (CTGGGGAGTCCT; chemistry not given here)  728.6 fold
12. N5_7B5 (CTGGGGAGTCCT; chemistry not given here)  779.9 fold
13. N5_1G5 (CTGGGGAGTCCT; chemistry not given here)  804.6 fold
14. N5_3C8 (CTGGGGAGTCCT; chemistry not given here)  835.1 fold
15. N5_1D5 (CTGGGGAGTCCT; chemistry not given here)  841.7 fold
16. N5_7H5 (DNA CTGGGGAGTCCT; chemistry not given here)  848.4 fold
17. N5_7H9 (DNA CTGGGGAGTCCT; chemistry not given here)  860.0 fold
18. N5_14B9 (CTGGGGAGTCCT; chemistry not given here)  897.5 fold
19. N5_7D1 (DNA CTGGGGAGTCCT; chemistry not given here)  909.3 fold
20. N5_14H11 (CTGGGGAGTCCT; chemistry not given here)  918.4 fold
21. N5_14D10 (CTGGGGAGTCCT; chemistry not given here)  950.5 fold
22. N5_6F6 (CTGGGGAGTCCT; chemistry not given here)  953.0 fold
23. N5_1F4 (CTGGGGAGTCCT; chemistry not given here)  958.5 fold
24. N5_2B11 (CTGGGGAGTCCT; chemistry not given here)  1009.4 fold
25. N5_2F10 (CTGGGGAGTCCT; chemistry not given here)  1014.6 fold
26. N5_2E11 (CTGGGGAGTCCT; chemistry not given here)  1038.1 fold
27. N5_2D8 (CTGGGGAGTCCT; chemistry not given here)  1047.3 fold
28. N5_1F12 (CTGGGGAGTCCT; chemistry not given here)  1057.8 fold
29. N5_7C10 (CTGGGGAGTCCT; chemistry not given here)  1090.7 fold
30. N5_7A10 (CTGGGGAGTCCT; chemistry not given here)  1108.5 fold
31. N5_13C10 (CTGGGGAGTCCT; chemistry not given here)  1144.6 fold
32. N5_7D5 (DNA CTGGGGAGTCCT; chemistry not given here)  1182.3 fold
33. N5_13G12 (CTGGGGAGTCCT; chemistry not given here)  1199.4 fold
34. N5_3D3 (CTGGGGAGTCCT; chemistry not given here)  1222.7 fold
35. N5_6A8 (CTGGGGAGTCCT; chemistry not given here)  1252.2 fold
36. N5_7G11 (DNA CTGGGGAGTCCT; chemistry not given here)  1533.8 fold
37. N5_1E12 (CTGGGGAGTCCT; chemistry not given here)  1588.2 fold
38. N5_7E1 (DNA CTGGGGAGTCCT; chemistry not given here)  1733.0 fold
39. N5_7F1 (DNA CTGGGGAGTCCT; chemistry not given here)  1744.2 fold
